Where a name gives a salt, the structure may show the parent alone.
Tested on: 293T-HRE-GFP-luc cells
Assay: Cell-based reporter assay for IC50 determinations (HRE-luciferase, hypoxia)
Details: 6 h, 6 hrs hypoxia (1% O2), luminescence
Procedure, shortened: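 293T-HRE-GFP-luc cells were pre-incubated with serially diluted compounds for 30 min under normoxia, then held 6 hrs in hypoxia (1% O2, 37° C). HRE-driven luciferase read by Steadylite Plus luminescence; IC50 from four-parameter logistic fit.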

| Compound | IC50 [µM] |
| --- | --- |
| CS(=O)(=O)C1CCN(c2cc(Cn3cc(-c4nc(-c5ccc(OC(F)(F)F)cc5)no4)ccc3=O)ccn2)CC1 [Example 175, 1-{[2-(4-methanesulfonylpiperidin-1-yl)pyridin-4-yl]methyl}-5-{3-[4-(trifluoromethoxy)phenyl]-1,2,4-oxadiazol-5-yl}-1,2-dihydropyridin-2-one] | < 0.1 |
| CCOc1cccc(Cn2cc(-c3nc(-c4ccc(OC(F)(F)F)cc4)no3)ccc2=O)c1 [Example 148, 1-[(3-ethoxyphenyl)methyl]-5-{3-[4-(trifluoromethoxy)phenyl]-1,2,4-oxadiazol-5-yl}-1,2-dihydropyridin-2-one] | < 0.1 |
| COC(=O)c1cccc(Cn2cc(-c3nc(-c4ccc(OC(F)(F)F)cc4)no3)ccc2=O)c1 [Example 107, methyl 3-((2-oxo-5-(3-(4-(trifluoromethoxy)phenyl)-1,2,4-oxadiazol-5-yl)pyridin-1(2H)-yl)methyl)benzoate] | 0.1 to 1 |
| CN1CCN(c2cccc(Cn3cc(-c4noc(-c5ccc(S(C)(=O)=O)cc5)n4)ccc3=O)c2)CC1 [Example 186, 5-[5-(4-methanesulfonylphenyl)-1,2,4-oxadiazol-3-yl]-1-{[3-(4-methylpiperazin-1-yl)phenyl]methyl}-1,2-dihydropyridin-2-one] | < 0.1 |
| CC(=O)N1CCN(c2cccc(Cn3cc(-c4nc(-c5ccc(OC(F)(F)F)cc5)no4)ccc3=O)c2)CC1 [Example 182] | < 0.1 |
| CC(C)Oc1ccc(-c2nc(-c3ccc(=O)n(Cc4cccc(N5CCC(S(C)(=O)=O)CC5)c4)c3)no2)cc1 [Example 78, 5-(5-(4-Isopropoxyphenyl)-1,2,4-oxadiazol-3-yl)-1-(3-(4-(methylsulfonyl)piperidin-1-yl)benzyl)pyridin-2(1H)-one] | < 0.1 |
| CN1CCN(c2cc(Cn3cc(-c4nc(-c5ccc(OC(F)(F)F)cc5)no4)ccc3=O)ccn2)CC1=O [Example 176, 1-methyl-4-{4-[(2-oxo-5-{3-[4-(trifluoromethoxy)phenyl]-1,2,4-oxadiazol-5-yl}-1,2-dihydropyridin-1-yl)methyl]pyridin-2-yl}piperazin-2-one] | < 0.1 |
| COCCOc1cccc(Cn2cc(-c3noc(-c4cnc(N5CCOCC5)nc4)n3)ccc2=O)c1 [Example 242, 1-{[3-(2-methoxyethoxy)phenyl]methyl}-5-{5-[2-(morpholin-4-yl)pyrimidin-5-yl]-1,2,4-oxadiazol-3-yl}-1,2-dihydropyridin-2-one] | < 0.1 |
| COCCOc1cccc(Cn2cc(-c3noc(-c4ccc(S(=O)(=O)CC(C)C)cc4)n3)ccc2=O)c1 [Example 233, 1-{[3-(2-methoxyethoxy)phenyl]methyl}-5-{5-[4-(2-methylpropanesulfonyl)phenyl]-1,2,4-oxadiazol-3-yl}-1,2-dihydropyridin-2-one] | < 0.1 |
| COCCOc1cccc(Cn2cc(-c3noc(-c4ccc(S(=O)(=O)CCOC)cc4)n3)ccc2=O)c1 [Example 237, 5-{5-[4-(2-methoxyethanesulfonyl)phenyl]-1,2,4-oxadiazol-3-yl}-1-{[3-(2-methoxyethoxy)phenyl]methyl}-1,2-dihydropyridin-2-one] | 0.1 to 1 |
| COCCOc1cccc(Cn2cc(-c3noc(-c4ccc(C(C)=O)cc4)n3)ccc2=O)c1 [Example 208, 5-[5-(4-acetylphenyl)-1,2,4-oxadiazol-3-yl]-1-{[3-(2-methoxyethoxy)phenyl]methyl}-1,2-dihydropyridin-2-one] | < 0.1 |
| CN1CCN(c2cccc(Cn3cc(-c4nc(-c5ccc(OC(F)(F)F)cc5)no4)ccc3=O)c2)CC1 [Example 116, 1-(3-(4-methylpiperazin-1-yl)benzyl)-5-(3-(4-(trifluoromethoxy)phenyl)-1,2,4-oxadiazol-5-yl)pyridin-2(1H)-one] | < 0.1 |
| CS(=O)(=O)C1CCN(c2cccc(Cn3nc(-c4nc(-c5ccc(N6CCOCC6)cc5)no4)ccc3=O)c2)CC1 [Example 83, 2-(3-(4-(Methylsulfonyl)piperidin-1-yl)benzyl)-6-(3-(4-morpholinophenyl)-1,2,4-oxadiazol-5-yl)pyridazin-3(2H)-one] | < 0.1 |
| CN1CCN(c2cccc(Cn3nc(C(=O)Nc4ccc(OC(F)(F)F)cc4)ccc3=O)c2)CC1 [Example 4, 1-(3-(4-Methylpiperazin-1-yl)benzyl)-6-oxo-N-(4-(trifluoromethoxy)phenyl)-1,6-dihydropyridazine-3-carboxamide trifluoroacetate salt] | < 0.1 |
| NS(=O)(=O)c1cccc(Cn2cc(-c3nc(-c4ccc(OC(F)(F)F)cc4)no3)ccc2=O)c1 [Example 124, 3-((2-oxo-5-(3-(4-(trifluoromethoxy)phenyl)-1,2,4-oxadiazol-5-yl)pyridin-1(2H)-yl)methyl)benzenesulfonamide] | < 0.1 |
| COCCOc1cccc(Cn2cc(-c3noc(-c4cnc(N(C)C)nc4)n3)ccc2=O)c1 [Example 232, 5-{5-[2-(dimethylamino)pyrimidin-5-yl]-1,2,4-oxadiazol-3-yl}-1-{[3-(2-methoxyethoxy)phenyl]methyl}-1,2-dihydropyridin-2-one] | < 0.1 |
| CN1CCN(c2cccc(Cn3cc(-c4nc(-c5ccc(C(F)(F)F)cc5)no4)ccc3=O)c2)CC1 [Example 63, 1-(3-(4-Methylpiperazin-1-yl)benzyl)-5-(3-(4-(trifluoromethyl)phenyl)-1,2,4-oxadiazol-5-yl)pyridin-2(1H)-one] | < 0.1 |
| CC(C)(O)c1cc(Cn2cc(-c3nc(-c4ccc(OC(F)(F)F)cc4)no3)ccc2=O)ccn1 [Example 50, 1-{[2-(2-Hydroxypropan-2-yl)pyridin-4-yl]methyl}-5-{3-[4-(trifluoromethoxy)phenyl]-1,2,4-oxadiazol-5-yl}-1,2-dihydropyridin-2-one] | 0.1 to 1 |
| COCCOc1cccc(Cn2cc(-c3noc(-c4ccc(Cl)cc4)n3)ccc2=O)c1 [Example 198, 5-[5-(4-chlorophenyl)-1,2,4-oxadiazol-3-yl]-1-{[3-(2-methoxyethoxy)phenyl]methyl}-1,2-dihydropyridin-2-one] | < 0.1 |
| COCCOc1cccc(Cn2cc(-c3noc(-c4ccc(C5(C(F)(F)F)CC5)cc4)n3)ccc2=O)c1 [Example 71, 1-(3-(2-Methoxyethoxy)benzyl)-5-(5-(4-(1-(trifluoromethyl)cyclopropyl)phenyl)-1,2,4-oxadiazol-3-yl)pyridin-2(1H)-one] | < 0.1 |
| O=C(c1cc(Cn2nc(-c3nc(-c4ccc(OC(F)(F)F)cc4)no3)ccc2=O)ccc1F)N1CCOCC1 [Example 129, 2-{[4-fluoro-3-(morpholine-4-carbonyl)phenyl]methyl}-6-{3-[4-(trifluoromethoxy)phenyl]-1,2,4-oxadiazol-5-yl}-2,3-dihydropyridazin-3-one] | 0.1 to 1 |
| O=c1ccc(-c2nc(-c3ccc(OC(F)(F)F)cc3)no2)cn1Cc1ccnc(N2CCC(O)CC2)c1 [Example 163, 1-{[2-(4-hydroxypiperidin-1-yl)pyridin-4-yl]methyl}-5-{3-[4-(trifluoromethoxy)phenyl]-1,2,4-oxadiazol-5-yl}-1,2-dihydropyridin-2-one] | < 0.1 |
| Cc1ncc(-c2nc(-c3ccc(OC(F)(F)F)cc3)no2)nc1Cc1cccc(N2CCN(C)CC2)c1 [Example 90, 5-(5-Methyl-6-(3-(4-methylpiperazin-1-yl)benzyl)pyrazin-2-yl)-3-(4-(trifluoromethoxy)phenyl)-1,2,4-oxadiazole] | < 0.1 |
| CN(C)S(=O)(=O)c1cccc(Cn2cc(-c3nc(-c4ccc(OC(F)(F)F)cc4)no3)ccc2=O)c1 [Example 35, N,N-Dimethyl-3-[(2-oxo-5-{3-[4-(trifluoromethoxy)phenyl]-1,2,4-oxadiazol-5-yl}-1,2-dihydropyridin-1-yl)methyl]benzene-1-sulfonamide] | < 0.1 |
| CS(=O)(=O)CCCOc1cccc(Cn2cc(-c3noc(-c4ccc(N5CCOCC5)cc4)n3)ccc2=O)c1 [Example 204, 1-{[3-(3-methanesulfonylpropoxy)phenyl]methyl}-5-{5-[4-(morpholin-4-yl)phenyl]-1,2,4-oxadiazol-3-yl}-1,2-dihydropyridin-2-one] | < 0.1 |
| COCCOc1cccc(Cn2cc(-c3noc(-c4cnc(SC)nc4)n3)ccc2=O)c1 [Example 86, 1-(3-(2-Methoxyethoxy)benzyl)-5-(5-(2-(methylthio)pyrimidin-5-yl)-1,2,4-oxadiazol-3-yl)pyridin-2(1H)-one] | < 0.1 |

Same assay, conditions: 6 hrs hypoxia (1% O2), luminescence

| Compound | IC50 [µM] |
| --- | --- |
| O=c1ccc(-c2nc(-c3ccc(OC(F)(F)F)cc3)no2)cn1Cc1cccc(C(O)CO)c1 (single isomer, unassigned) [Example 53a, (1R)- or (1S)-1-(3-(1,2-dihydroxyethyl)benzyl)-5-(3-(4-(trifluoromethoxy)phenyl)-1,2,4-oxadiazol-5-yl)pyridin-2(1H)-one] | < 0.1 |
